From patent publication US11261232B2, “TNFRSF14 / HVEM proteins and methods of use thereof” (MEMORIAL SLOAN KETTERING CANCER CENTER, priority 2015, dated 2022)

Experiments:
[1] = test system: BCR signaling pathway in BCL1 mouse lymphoma cells; assay: BTK phosphorylation by flow cytometry in IgM-stimulated BCL1 cells; assay type: cell-based; settings: solHVEM 10 μg/ml
Description: FIG. 4A-E. HVEM blocks BCR signaling in a cell autonomous and BTLA dependent manner. FIG. 4A and FIG. 4B, Quantification of FACS analysis of phosphorylated BTK (pBTK) expression in BCL1 cells after stimulation with anti-IgM in the presence of solHVEM (10 μg/m1) or Ibrutinib (10 nM) without (FIG. 4A) or with (FIG. 4B) the knockdown of BTLA (shBTLA); FIG. 4C, FACS analysis of BTLA expression on purified primary human FL B cells distinguishes samples with high (BTLA^hi) and low (BTLAlo) surface BTLA expression); FIG. 4D, FACS analysis for the indicated signaling molecules in human primary FL B cells that were BTLA^hi or BTLAlo and stimulated with anti-human IgG (3 min; 10 μg/ml and H2O2 1 mM) in the presence or absence of the soluble HVEM ectodomain (solHVEM; 10 μg/ml) (right); FIG. 4E, Percentage of pSyk inhibition was calculated by comparing the ratio of MFI of pSyk+/−solHVEM and was correlated to BTLA ratio of MFI (r=0.697, p=0.03, Purified FL B cells, n=10, grade 1 and grade 2).
Loss of HVEM and BTLA leads to BCR activation in murine lymphomas (FIGS. 2G and 3F). […] Briefly, the BCR signaling pathway in BCL1 mouse lymphoma cells was stimulated with IgM in the presence or absence of solHVEM (10 μg/ml) or the pharmacological BTK inhibitor ibrutinib (10 nM) and BTK phosphorylation was measured as an indicator of BCR pathway activation by flow cytometry. […]

purified human TFH cells = assay: TFH stimulation: viability and cytokine expression; assay type: cell-based
Source text: FIG. 6A-I. Increased TFH cell recruitment supports to HVEM deficient lymphoma B cells. FIG. 6A, FACS identification and sorting of human GC derived TFH cells based on the markers CD3pos, CD4pos, CD25neg, PD1hi, CXCRShi, left: isotypic control; right; staining with anti-BTLA antibody; FIG. 6B and FIG. 6C, FACS measurement (FIG. 6B) and quantification (FIG. 6C) of intra-tumoral TFH cells in control and HVEM deficient murine lymphomas; FIG. 6D and FIG. 6E, qRT-PCR measurement of IL21 (FIG. 6D), and IL4 (FIG. 6E) in sorted intra-tumoral T cells (N=?); FIG. 6F, qRT-PCR measurement of the LTa, LTb, and TNFa mRNA expression in T cells isolated from the spleens of vector and shHVEM mice * p<?; G-I, qRT-PCR measurement of TNFa (FIG. 6G), LTa (FIG. 6H), and LTb (FIG. 61) in cell sorted TFH (n=4) cultured with anti-CD3/anti-CD28 Mabs in presence or not of soluble HVEM (solHVEM, 10 μg/ml), each symbol represents an independent TFH sample.
FIG. 13A-E. Analysis of TFH cell function in HVEM deficient lymphomas. FIG. 13A and FIG. 13B, qRT-PCR measurement of the receptors for IL21 (IL-21ra; A), and IL4 (IL4ra; B) in purified lymphoma B cells; FIG. 13C, Viability of purified murine TFH cells (samples: n=4) that were cultured for 3 days with or without (UN) stimulation by anti-CD3/anti-CD28 in the presence or absence of the soluble HVEM ectodomain (solHVEM: 10 μg/ml); FIG. 13D, Cell-Sorted GC-TFH cultured with anti-CD3/anti-CD28 Mabs in presence or not of solHVEM; production of CXCL13(FIG. 13E) and IL-21(FIG. 13F) evaluated by ELISA.
The stroma-derived cytokine CXCL13 is the main chemo-attractant for CXCRSpos follicular T helper cells (TFH) (Crotty, 2014). […] This increase in TFH cell numbers is associated with an elevated expression of the TFH derived cytokines. […] Further, it was observed that the increased production of IL21 and IL4 by TFH cells was matched with an elevated expression of the IL21 and IL4 receptors on FACS purified lymphoma B cells from HVEM deficient lymphomas (p<0.01) (FIGS. 13A and 13B). Human TFH cells are characterized by high-level expression of the BTLA receptor (FIG. 13C) and experiments were performed to test whether HVEM directly affected these tumor infiltrating T cells. […]
Purified TFH were cultured in IMDM 10% FCS with or without anti-CD3 (0.6 μg/mL) and anti-CD28 (0.6 m/mL, Pelicluster Sanquin) MAbs in the presence or not of solHVEM (10 μg/mL). After 3 days of culture, the number of viable TFH was evaluated by flow cytometry using count beads (Flow Count, Beckman Coulter) and Topro-3 staining (Invitrogen). CXCL13 was quantified in culture supernatants by ELISA (R&D Systems) according to manufacturer's instructions.

[2] = with or without anti-CD3/anti-CD28, solHVEM 10 μg/mL, 3 days

solHVEM: Leu39-Val202 soluble HVEM ectodomain polypeptide of SEQ ID NO. 8
BTK phosphorylation and activation ([1]; BCL1 cells stimulated with IgM): blocked BTK phosphorylation and activation
BTK inhibition with knockdown of BTLA ([1]; BCL1 cells with shBTLA): knockdown of BTLA prevented BTK inhibition
expression of LTa in TFH cells (purified human TFH cells; solHVEM 10 μg/ml): reductions
expression of LTb in TFH cells (purified human TFH cells; solHVEM 10 μg/ml): reductions
TFH cell numbers (purified human TFH cells; [2]): did not affect
TFH cell viability (purified human TFH cells; [2]): did not affect
